Series [1] is described as follows: Solid-state stability test (XRPD detection). Type of series: physicochemical. Particulars: room temperature/75% RH, 40° C./75% RH, 60° C./75% RH (all open); for Solid-state stability: crystalline form by XRPD compared with Day 0: room temperature/92.5% RH, Day 5 and Day 10. How it is done: In the present application, the X-ray powder diffraction patterns are measured by the following method: instrument: Bruker D8 ADVANCE X-ray diffractometer; method: target: Cu: K-Alpha; wavelength: λ=1.54179 Å; tube voltage: 40 kV; divergence slit: 0.60 mm; detector slit: 10.50 mm; antiscattering slit: 7.10 mm; tube current: 40 mA; scan range: 4° to 40°; scanning speed: 0.12 sec/step, 0.02°/step; sample tray rotation speed: 15 rpm.
The solid-state stability of crystalline Form A was examined under the following conditions: 1) 40° C. (open), 2) 60° C. (open), 3) room temperature/92.5% RH (open), 4) room temperature/75% RH (open), 5) 40° C./75% RH (open), and 6) 60° C./75% RH (open), wherein the room temperature was selected from 20° C. to 30° C.
Several samples of crystalline Form A in a suitable amount were taken, and placed on the bottom of the glass specimen bottles and spread into a thin layer. The bottles with the samples to be placed under the abovementioned conditions were capped with aluminum-foil paper which has been punched with several small holes, which ensures that the samples could be in full contact with the ambient air.
The solid-state stability of crystalline Form B was examined under the following conditions: 1) room temperature/92.5% RH (open), 2) room temperature/75% RH (open), 3) 40° C./75% RH (open), and 4) 60° C./75% RH (open), which the room temperature was selected from 20° C. to 30° C.
Several samples of crystalline Form B in a suitable amount were taken, and placed on the bottom of the glass specimen bottles and spread into a thin layer. The bottles with the samples to be placed under the abovementioned conditions were capped with aluminum-foil paper which has been punched with several small holes, which ensures that the samples could be in full contact with the ambient air.
The solid-state stability for the solid amorphous form of the compound of formula I was examined under the following conditions: 1) room temperature/75% RH (open), 2) 40° C./75% RH (open), 3) 60° C./75% RH (open), wherein the room temperature was selected from 20° C. to 30° C. […]

Series [2] can be described thus: Test for hygroscopicity, Dynamic Vapor Sorption (DVS). The class given is physicochemical. Particulars: 25±1° C., 80±2% RH. The protocol: Dynamic Vapor Sorption (DVS) analysis was performed on crystalline Form A and the solid amorphous form of the compound of formula I by the following process and conditions: the samples (10 to 15 mg) were placed in the sample pan; instrument model: SMS DVS Advantage Dynamic Vapor Sorption; temperature: 25° C.; balance: dm/dt=0.01%/min (Min: 10 min, Max: 180 min); drying: for 120 min at 0% RH; RH (%) gradient for testing: 10%; the RH (%) range for gradient testing: 0%-90%-0%. The hygroscopicity was evaluated using the following scale: […]

The nature of series [3]: Pharmacokinetics in mice administrated with single compound. Type of series: in vivo, mice (C57BL/6J). The following applies: mouse, plasma, male C57BL/6J mice; for bioavailability: oral 10 mg/kg vs intravenous 2 mg/kg; for AUC / Cmax / Tmax: oral (intragastrical) 10 mg/kg. The protocol: 12 male mice (C57BL/6J) were randomly divided into two groups, i.e., 6 mice per group. […] Plasma (using K2-EDTA as anticoagulant) samples were taken at 0.083, 0.25, 0.5, 1, 2, 4, 6, 8 and 24 hours in the intravenous administration group after administration; and plasma samples were taken at 0.25, 0.5, 1, 2, 4, 6, 8 and 24 hours in the oral administration group after administration. For 6 animals in each group, blood samples were collected for 3 animals at one time point. The first batch of 3 animals was alternately sampled with the second batch of 3 animals. Plasma sample analysis was performed by using LC-MS/MS. The resultant plasma concentrations were plotted with respect to time, and PK parameters were calculated by using Phoenix WinNonlin 6.3.

Series [4] concerns the target T1, Glutathione-S-transferase-labeled FXR human protein (Homo sapiens, UniProt Q96RI1).
T1 sequence (Q96RI1 1-486): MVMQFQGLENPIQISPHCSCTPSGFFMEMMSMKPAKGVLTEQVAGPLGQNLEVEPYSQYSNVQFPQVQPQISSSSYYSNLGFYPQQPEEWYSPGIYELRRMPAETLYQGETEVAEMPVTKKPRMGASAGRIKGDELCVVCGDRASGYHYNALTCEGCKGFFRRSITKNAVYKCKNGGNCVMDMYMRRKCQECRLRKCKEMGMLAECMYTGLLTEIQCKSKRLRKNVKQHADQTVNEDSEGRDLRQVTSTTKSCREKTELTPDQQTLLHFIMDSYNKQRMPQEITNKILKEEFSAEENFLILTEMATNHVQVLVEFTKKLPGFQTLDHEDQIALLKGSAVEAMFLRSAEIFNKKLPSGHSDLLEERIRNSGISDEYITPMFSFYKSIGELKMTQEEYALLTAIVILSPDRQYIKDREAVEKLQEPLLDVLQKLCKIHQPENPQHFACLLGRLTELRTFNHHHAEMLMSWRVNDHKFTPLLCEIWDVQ
As to the kind of experiment: FXR biochemical experiment (AlphaScreen, coactivator recruitment). How it is done:
The activation effect of the compound on FXR binding reaction was detected by AlphaScreen. […] Protein: Glutathione-S-transferase-labeled FXR human protein (Invitrogen) 2. Co-activator: Biotin-labeled steroid receptor coactivator (Anaspec) 3. […] Compound Dilution: The compound to be tested was prepared as a 40 μM DMSO solution, and then diluted 3-fold to 10 concentration points. The reference compound was prepared as a 400 μM DMSO solution, and then diluted 1.5-fold to 10 concentration points. The diluted DMSO solution was added to the wells of a 384-well plate in a volume of 150 nL per well. 2. […] 4. […] The operation during the experimental process was protected from light. The incubation was performed for 1 hour at room temperature. 5. […] The operation during the experimental process was protected from light. The incubation was performed for 1 hour at room temperature. 6. EC50 test: Envision was used with excitation at 680 nm to read the absorbance signals at 520-620 nm. 7. Analytical data: The data were analyzed via using Prism 5.0, and the EC50 values of the activation effects of the compound were calculated.

The target of series [5] is T2, FXR (FXR HEK 293T DA cells) (Homo sapiens, UniProt Q96RI1).
T2 sequence (Q96RI1 262-486 limits assumed): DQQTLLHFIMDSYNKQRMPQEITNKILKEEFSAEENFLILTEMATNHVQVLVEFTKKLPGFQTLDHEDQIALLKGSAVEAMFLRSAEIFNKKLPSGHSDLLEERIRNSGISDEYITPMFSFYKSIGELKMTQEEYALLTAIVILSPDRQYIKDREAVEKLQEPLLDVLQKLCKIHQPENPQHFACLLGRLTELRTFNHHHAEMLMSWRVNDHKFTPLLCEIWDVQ
As to the kind of experiment: FXR cell experiment (β-lactamase reporter gene). Type of series: cell-based. The protocol: 2. Cell culture medium: DMEM medium supplemented with 10% serum and Penicillin/Streptomycin (1×)
3. Detection reagent: GeneBLAzer® Reporter Gene Detection Kit (Invitrogen)
1. Compound Dilution: The compound to be tested was prepared as a 100 μM DMSO solution, and then the compound was diluted 3-fold to 10 concentration points. The reference compound was prepared as a 100 μM DMSO solution, and then diluted 1.3-fold to 10 concentration points. The diluted DMSO solution was added to the wells of a 384-well plate in a volume of 200 nL per well.
3. The 384-well plate was incubated at 37° C., 5% CO2 for 16 hours.
4. 6 μL of 1 mM LiveBLAzer™-FRET 13/G (CCF4-AM) substrate was mixed with 60 μL of B solution and 934 μL of C solution, and added to the wells of the 384-well plate in a volume of 8 μL per well.
5. The 384-well plate was incubated in dark for 2 hours at room temperature.
7. Analytical data: The data was analyzed via using Prism 5.0, and the EC50 values of the activation effects of the compound were calculated.

The results in this text go back to patent US11059853B2, “Crystalline or amorphous form of steroid derivative FXR agonist, preparation method therefor and use thereof” (Chia Tai Tianqing Pharmaceutical Group Co., Ltd., priority 2017, dated 2021).

Take `CC[C@H]1[C@@H](O)[C@@H]2[C@H](CC[C@]3(C)[C@@H]([C@H](C)CCOc4ncc(C(=O)O)cc4Cl)CC[C@@H]23)[C@@]2(C)CC[C@@H](O)C[C@@H]12` [solid amorphous form of the compound of formula I]: the “Solid-state stability: XRPD compared with Day 0” value in series [1] (Day 10 and one month) is listed as “remained unchanged”. Also, the hygroscopic weight gain in series [2] is given as 1.775%.
As for `CC[C@H]1[C@@H](O)[C@@H]2[C@H](CC[C@]3(C)[C@@H]([C@H](C)CCOc4ncc(C(=O)O)cc4Cl)CC[C@@H]23)[C@@]2(C)CC[C@@H](O)C[C@@H]12` [crystalline Form A], the “Solid-state stability: crystalline form by XRPD compared with Day 0” value in series [1] (40° C., 60° C.) is given as “remained unchanged”. For the same compound, in series [2], the hygroscopic weight gain came to 0.835%.
Turning to `CC[C@H]1[C@@H](O)[C@@H]2[C@H](CC[C@]3(C)[C@@H]([C@H](C)CCC(=O)O)CC[C@@H]23)[C@@]2(C)CC[C@@H](O)C[C@@H]12` [Obeticholic acid, reference compound], in series [3], the bioavailability stood at 13%, the AUC turned out to be 0.993 µM·h, the Cmax was 1010 nM and the Tmax came out at 18 min.
`CC[C@H]1[C@@H](O)[C@@H]2[C@H](CC[C@]3(C)[C@@H]([C@H](C)CCOc4ncc(C(=O)O)cc4Cl)CC[C@@H]23)[C@@]2(C)CC[C@@H](O)C[C@@H]12` [The compound of formula I]: the EC50 in series [4] (AlphaScreen, GST-FXR human protein with biotin-labeled steroid receptor coactivator, read-out: FXR enzyme activity EC50) was found to be 2.5 nM. In addition, the “FXR enzyme activity Efficacy” value in series [4] (highest signal relative to the reference compound) was determined as 248%. The EC50 in series [5] (FXR HEK 293T DA cells, β-lactamase reporter gene, 16 hours, read-out: FXR cell viability EC50) amounted to 3 nM. Also, the “FXR cell viability Efficacy” value in series [5] (highest signal relative to reference compound CDCA) was 150%. For the same compound, in series [3], the bioavailability is 20%, the AUC came to 1.11 µM·h, the peak level (Cmax) was 1780 nM and the Tmax turned out to be 30 min.
With `CC[C@H]1[C@@H](O)[C@@H]2[C@H](CC[C@]3(C)[C@@H]([C@H](C)CCOc4ncc(C(=O)O)cc4Cl)CC[C@@H]23)[C@@]2(C)CC[C@@H](O)C[C@@H]12` [crystalline Form B], the “Solid-state stability: crystalline form by XRPD compared with Day 0” value in series [1] is reported as “remained unchanged”.
